A short description of series [1]: Cell viability of mouse P19 derived neurons at 1 nM by XTT reduction assay relative to control. It is filed as functional. Background: Tetrazolium assays rely on reduction of a dye to a coloured formazan, in cell work by metabolically active cells.
The nature of series [2]: Neurotoxicity against mouse P19 derived neurons after 18 hrs. It is filed as toxicity.
The next series concerns P19. The series is described as follows: Cytotoxicity against mouse P19 cells after 18 hrs. It is filed as functional, cell-based. The settings on record: P19, 18 h.
Series [3] can be described thus: Neuroprotective activity against paclitaxel-induced toxicity in mouse P19 derived neurons assessed as cell viability at 1 nM. It is filed as functional. As to conditions: read-out: Activity.
The species named for series [4] is Mus musculus. The series is described as follows: Neuroprotective activity against vinblastine-induced toxicity in mouse P19 derived neurons assessed as cell viability at 1 nM after 18 hrs by phase contrast microscope. It counts as functional.
Series [5] can be described thus: Therapeutic index, ratio of neurotoxic IC50 to neuroprotective activity for mouse P19 derived neurons.
For series [6], the species on record is Mus musculus. The series is described as follows: Neuroprotective activity against paclitaxel-induced toxicity in mouse P19 derived neurons assessed as cell viability at 1 nM after 18 hrs by phase contrast microscope. It is filed as functional.

The source made the active and inactive calls. The rule behind the calls is not given here.

For orientation: IC50 means the midpoint of a concentration-inhibition curve. Regarding `CCOC1=C2C[C@@H](C)C[C@H](OC)[C@H](O)[C@@H](C)/C=C(\C)[C@H](OC(N)=O)[C@@H](OC)/C=C\C=C(/C)C(=O)NC(=CC1=O)C2=O`, in series [1], the Activity came out at 113%. The molecule further had an IC50 at 18 h in series [2] of 1600 nM. In the series with P19, this molecule gave an IC50 of 100 nM. The viability at 0.001 µM in series [3] came to 100%.

Take `CO[C@H]1/C=C\C=C(/C)C(=O)NC2=CC(=O)C(N)=C(C[C@@H](C)C[C@H](OC)[C@H](O)[C@@H](C)/C=C(\C)[C@@H]1OC(N)=O)C2=O`: the Activity in series [1] amounted to 85%.

With `CCCNC1=C2C[C@@H](C)C[C@H](OC)[C@H](O)[C@@H](C)/C=C(\C)[C@H](OC(N)=O)[C@@H](OC)/C=C\C=C(/C)C(=O)NC(=C(NCCC)C1=O)C2=O`, the Activity in series [1] is 0%.

For `CO[C@H]1/C=C\C=C(/C)C(=O)NC2=CC(=O)C(OCc3ccccc3)=C(C[C@@H](C)C[C@H](OC)[C@H](O)[C@@H](C)/C=C(\C)[C@@H]1OC(N)=O)C2=O`, the Activity in series [1] turned out to be 111%. Moreover, the IC50 at 18 h in series [2] is greater than 10000 nM. The same molecule had an IC50 in the series with P19 of 500 nM. For the same molecule, the viability at 0.001 µM in series [3] was found to be 100%.

With `CO[C@H]1/C=C\C=C(/C)C(=O)NC2=CC(=O)C(O)=C(C[C@@H](C)C[C@H](OC)[C@H](O)[C@@H](C)/C=C(\C)[C@@H]1OC(N)=O)C2=O`, in series [1], the Activity is 50%.

On to `CNC1=C2C[C@@H](C)C[C@H](OC)[C@H](O)[C@@H](C)/C=C(\C)[C@H](OC(N)=O)[C@@H](OC)/C=C\C=C(/C)C(=O)NC(=C(NC)C1=O)C2=O`, for which the Activity in series [1] came out at 46%.

As to `CCNC1=C2C[C@@H](C)C[C@H](OC)[C@H](O)[C@@H](C)/C=C(\C)[C@H](OC(N)=O)[C@@H](OC)/C=C\C=C(/C)C(=O)NC(=CC1=O)C2=O`, in series [1], the Activity is 49%.

As to `CCCOC1=C2C[C@@H](C)C[C@H](OC)[C@H](O)[C@@H](C)/C=C(\C)[C@H](OC(N)=O)[C@@H](OC)/C=C\C=C(/C)C(=O)NC(=CC1=O)C2=O`, the Activity in series [1] was 121%. Moreover, the IC50 at 18 h in series [2] came out at 6700 nM. Also, the IC50 in the series with P19 amounted to 200 nM. Moreover, the viability at 0.001 µM in series [3] came out at 100%.

Turning to `CO[C@H]1/C=C\C=C(/C)C(=O)Nc2cc(O)c(O)c(c2O)C[C@@H](C)C[C@H](OC)[C@H](O)[C@@H](C)/C=C(\C)[C@@H]1OC(N)=O`, in series [1], the Activity worked out at 43%.

As to `CO[C@H]1/C=C\C=C(/C)C(=O)NC2=CC(=O)C(NCc3ccccc3)=C(C[C@@H](C)C[C@H](OC)[C@H](O)[C@@H](C)/C=C(\C)[C@@H]1OC(N)=O)C2=O`, the Activity in series [1] was 44%.

Turning to `COC1=C2C[C@@H](C)C[C@H](OC)[C@H](O)[C@@H](C)/C=C(\C)[C@H](OC(N)=O)[C@@H](OC)/C=C\C=C(/C)C(=O)NC(=C(OC)C1=O)C2=O`, the Activity in series [1] was 108%. Also, the result in the series listed under Mus musculus [4] and in the series listed under Mus musculus [6] was Active. This molecule showed an IC50 at 18 h in series [2] greater than 10000 nM. Moreover, the IC50 in the series on P19 is greater than 10000 nM. Moreover, the viability at 0.001 µM in series [3] was found to be 120%. The selectivity ratio in series [5] is greater than 10000.

In series [1], `COC1=C2C[C@@H](C)C[C@H](OC)[C@H](O)[C@@H](C)/C=C(\C)[C@H](OC(N)=O)[C@@H](OC)/C=C\C=C(/C)C(=O)NC(=C(N)C1=O)C2=O` yielded an Activity of 91%.

`CCOC1=C2C[C@@H](C)C[C@H](OC)[C@H](O)[C@@H](C)/C=C(\C)[C@H](OC(N)=O)[C@@H](OC)/C=C\C=C(/C)C(=O)NC(=C(OCC)C1=O)C2=O` had an Activity in series [1] of 0%.

In series [1], `CCCNC1=C2C[C@@H](C)C[C@H](OC)[C@H](O)[C@@H](C)/C=C(\C)[C@H](OC(N)=O)[C@@H](OC)/C=C\C=C(/C)C(=O)NC(=CC1=O)C2=O` showed an Activity of 0%.

On to `C=CCNC1=C2C[C@@H](C)C[C@H](OC)[C@H](O)[C@@H](C)/C=C(\C)[C@H](OC(N)=O)[C@@H](OC)/C=C\C=C(/C)C(=O)NC(=CC1=O)C2=O`, for which the Activity in series [1] was 66%.

In series [1], `CO[C@H]1/C=C\C=C(/C)C(=O)NC2=C(NCCCO)C(=O)C(NCCCO)=C(C[C@@H](C)C[C@H](OC)[C@H](O)[C@@H](C)/C=C(\C)[C@@H]1OC(N)=O)C2=O` registered an Activity of 0%.

Take `COC1=C2C[C@@H](C)C[C@H](OC)[C@H](O)[C@@H](C)/C=C(\C)[C@H](OC(N)=O)[C@@H](OC)/C=C\C=C(/C)C(=O)NC(=CC1=O)C2=O` [GELDANAMYCIN]: the Activity in series [1] was determined as 121%. For the same molecule, in series [2], the IC50 at 18 h was determined as 1800 nM. In the series on P19, this molecule gave an IC50 of 100 nM. In series [3], the viability at 0.001 µM is 100%. Moreover, the selectivity ratio in series [5] is greater than 1800.

The record behind these values is ChEMBL document CHEMBL1139942, “Geldanamycin derivatives and neuroprotective effect on cultured P19-derived neurons” (Bioorg Med Chem Lett, 2007).
